According to patent US4246280A, “20-Alkoxy-16-alkyl-prostadienoic acid derivatives” (priority 1974, dated 1981):

Experiments:
[1] = Diarrhea-producing effect, oral, guinea-pigs; conditions: guinea pig, in vivo, 2hr to next morning, read-out: (A) Diarrhea-producing effect (b), ED50
Description: II. Diaarrhea-producing effect
Test compounds were administered orally to guinea-pigs. The appearance of diarrhea (loose or watery feces) at 2hr, 3hr, 4hr, 5hr and next morning was noted.

[2] = Antiasthmatic effect, oral (protection against histamine spray 30 min after oral administration in guinea-pigs); type: in vivo; conditions: for ED50: Cavia porcellus, 0.5 h, read-out: Antiasthmatic effect, Oral (a), ED50; for b/a: ratio of diarrhea ED50 (b) to oral antiasthmatic ED50 (a)
Description: Guinea-pigs were sprayed for 10 sec with histamine 30 min after oral administration of test compounds and observed for 3 min. The percent of aminals protected was determined.

[3] = Antiasthmatic effect, aerosol (protection against sneezing induced by histamine aerosol in guinea-pigs); type: in vivo; conditions: aerosol of test compound 15 sec, histamine 0.1% aerosol
Description: Guinea-pigs were placed in a chamber and sprayed for 10 sec with an aerosol of histamine solution (0.1%) and onset of sneezing was recorded and animals with control time of 70-100 sec were selected. These animals were sprayed for 15 sec with an aerosol of test compounds. After 45 sec, sprayed histamine and observed for 3 min it was. […] The percent of animals protected was determined.

[4] = Effect on air-way resistance (Konzett and Rossler; histamine-induced broncho-constriction, intraduodenal administration); type: in vivo, guinea-pig; conditions: Cavia porcellus, 0.5 h, read-out: (B) Effect on airway resistance, ED50
Description: III. Effect on air-way resistance
The air-way resistance of the guinea-pig lung was determined by the method of Konzett and Rossler (Arch. exp. Path. Pharmak., 195, 71-74(1940)). The bronchorelaxing activity of prostaglandins were expressed in terms of protective effect against broncho-constriction elicited by intravenous injection of histamine (3 μg/kg). Histamine was injected 30 min after intraduodenal administration of test compound to urethane anesthetized and artificially ventilated guinea-pigs.

[5] = guinea-pigs, oral, histamine 30 min after administration

| Compound | TD50 [1] | ED50 ([2]; po) | b/a [2] | Antiasthmatic effect, Aerosol, ED50 [3] | ED50 [2, 5] | antiasthmatic effect upon oral administration (in words) ([2]; guinea-pigs, oral) | ED50 [4] | ED50 ([4]; guinea-pigs, intraduodenal, histamine 3 μg/kg i.v. 30 min later) |
| --- | --- | --- | --- | --- | --- | --- | --- | --- |
| CCCC[C@@H](C)C(O)/C=C/[C@H]1[C@H](O)CC(=O)[C@@H]1C/C=C\CCCC(=O)O (stereo partly drawn) [11α,15-dihydroxy-16(R)-methyl-9-oxo-5(cis)-13(trans)prostadienoic acid] | 0.025 mg/kg | 0.0175 mg/kg | 1.43 | 0.011 µg/mL | – | – | – | – |
| CCCCC(C)C(O)/C=C/[C@H]1[C@H](O)CC(=O)[C@@H]1C/C=C\CCCC(=O)O (stereo partly drawn) [11α,15-dihydroxy-16-methyl-9-oxo-5(cis)-13(trans)prostadienoic acid] | 0.1 mg/kg | 0.025 mg/kg | 4.0 | 0.009 µg/mL | – | – | – | – |
| COCCCCCC(O)/C=C/[C@H]1[C@H](O)CC(=O)[C@@H]1C/C=C\CCCC(=O)O (stereo partly drawn) [20-methoxy-PGE2, 11α,15-dihydroxy-20-methoxy-9-oxo-5(cis)-13(trans)prostadienoic acid] | – | – | – | 0.15 µg/mL | > 0.8 mg/kg | no antiasthmatic effect upon oral administration | – | – |
| COCCCCC(C)C(O)/C=C/[C@H]1[C@H](O)CC(=O)[C@@H]1C/C=C\CCCC(=O)O (stereo partly drawn) [Example 3, 11α,15-dihydroxy-20-methoxy-16-methyl-9-oxo-5(cis)-13(trans)prostadienoic acid] | 0.12 mg/kg | 0.0098 mg/kg | 12.2 | 0.037 µg/mL | – | – | 0.0135 mg/kg | – |
| COCCCC[C@H](C)C(O)/C=C/[C@H]1[C@H](O)CC(=O)[C@@H]1C/C=C\CCCC(=O)O (stereo partly drawn) [Example 6, 11α,15-dihydroxy-20-methoxy-16(S)-methyl-9-oxo-5(cis)-13(trans)prostadienoic acid] | 0.14 mg/kg | 0.71 mg/kg | 20.0 | – | – | – | – | – |
| COCCCC[C@H](C)C(O)/C=C/[C@H]1[C@H](O)CC(=O)[C@@H]1C/C=C\CCCC(=O)OC (stereo partly drawn) [Example 7 ([α]D^25-58.0°), 11α,15-dihydroxy-20-methoxy-16(S)-methyl-9-oxo-5(cis)-13(trans)prostadienoic acid methyl ester] | 0.145 mg/kg | 0.016 mg/kg | 9.06 | – | – | – | – | – |
| COCCCCC(C)C(O)/C=C/[C@H]1[C@H](O)CC(=O)[C@@H]1C/C=C\CCCC(=O)OC (stereo partly drawn) [Example 7 ([α]D^25-66.4°), 11α,15-dihydroxy-20-methoxy-16-methyl-9-oxo-5(cis)-13(trans)prostadienoic acid methyl ester] | 0.051 mg/kg | 0.0053 mg/kg | 9.62 | – | – | – | – | – |
| CCCCC[C@H](O)/C=C/[C@H]1[C@H](O)CC(=O)[C@@H]1C/C=C\CCCC(=O)O [Prostaglandin E2] | – | – | – | 0.15 µg/mL | > 0.8 mg/kg | no antiasthmatic effect upon oral administration | – | > 0.8 mg/kg |
